From patent publication US6972296B2, “Carboxylic acid derivatives that inhibit the binding of integrins to their receptors” (Encysive Pharmaceuticals Inc., priority 1999, dated 2005)
pIC50: −log10 of the molar value.

What was measured:
α4β1 integrin = target: T1, α4β1 integrin (Homo sapiens, UniProt P05556+P13612); assay: Adhesion of calcein-labeled Ramos cells to CS1 (fibronectin) peptide conjugated ovalbumin; type: cell-based; details: Ramos cell adhesion to CS1 conjugated ovalbumin
T1 construct: endogenous in cells; host or cells: Ramos cells
T1 sequence (P13612 34-1032): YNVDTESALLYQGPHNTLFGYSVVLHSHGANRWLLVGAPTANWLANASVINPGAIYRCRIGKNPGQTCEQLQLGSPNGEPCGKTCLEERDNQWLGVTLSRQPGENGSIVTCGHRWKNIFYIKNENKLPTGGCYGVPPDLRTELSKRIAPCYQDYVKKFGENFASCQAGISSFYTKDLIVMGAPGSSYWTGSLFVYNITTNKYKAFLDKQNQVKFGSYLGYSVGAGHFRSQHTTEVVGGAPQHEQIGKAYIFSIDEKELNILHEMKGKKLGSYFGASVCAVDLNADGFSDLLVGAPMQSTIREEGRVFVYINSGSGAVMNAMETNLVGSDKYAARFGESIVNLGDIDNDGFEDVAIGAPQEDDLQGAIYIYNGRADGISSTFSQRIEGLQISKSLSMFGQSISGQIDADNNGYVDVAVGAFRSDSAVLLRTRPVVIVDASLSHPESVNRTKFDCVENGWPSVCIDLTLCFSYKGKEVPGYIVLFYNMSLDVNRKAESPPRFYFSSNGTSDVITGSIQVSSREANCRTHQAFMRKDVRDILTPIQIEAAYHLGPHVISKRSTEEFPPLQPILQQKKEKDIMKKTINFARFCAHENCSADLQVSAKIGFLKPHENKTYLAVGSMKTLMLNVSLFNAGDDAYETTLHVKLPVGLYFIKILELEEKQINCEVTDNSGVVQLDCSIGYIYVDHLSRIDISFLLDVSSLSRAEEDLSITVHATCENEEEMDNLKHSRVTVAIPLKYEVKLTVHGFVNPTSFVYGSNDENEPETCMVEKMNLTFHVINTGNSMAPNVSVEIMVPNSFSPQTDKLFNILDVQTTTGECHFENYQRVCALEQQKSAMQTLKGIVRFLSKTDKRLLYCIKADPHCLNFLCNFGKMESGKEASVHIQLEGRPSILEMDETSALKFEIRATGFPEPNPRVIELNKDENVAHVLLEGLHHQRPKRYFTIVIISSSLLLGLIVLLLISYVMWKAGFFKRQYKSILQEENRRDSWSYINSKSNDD
T1 sequence (P05556 21-798): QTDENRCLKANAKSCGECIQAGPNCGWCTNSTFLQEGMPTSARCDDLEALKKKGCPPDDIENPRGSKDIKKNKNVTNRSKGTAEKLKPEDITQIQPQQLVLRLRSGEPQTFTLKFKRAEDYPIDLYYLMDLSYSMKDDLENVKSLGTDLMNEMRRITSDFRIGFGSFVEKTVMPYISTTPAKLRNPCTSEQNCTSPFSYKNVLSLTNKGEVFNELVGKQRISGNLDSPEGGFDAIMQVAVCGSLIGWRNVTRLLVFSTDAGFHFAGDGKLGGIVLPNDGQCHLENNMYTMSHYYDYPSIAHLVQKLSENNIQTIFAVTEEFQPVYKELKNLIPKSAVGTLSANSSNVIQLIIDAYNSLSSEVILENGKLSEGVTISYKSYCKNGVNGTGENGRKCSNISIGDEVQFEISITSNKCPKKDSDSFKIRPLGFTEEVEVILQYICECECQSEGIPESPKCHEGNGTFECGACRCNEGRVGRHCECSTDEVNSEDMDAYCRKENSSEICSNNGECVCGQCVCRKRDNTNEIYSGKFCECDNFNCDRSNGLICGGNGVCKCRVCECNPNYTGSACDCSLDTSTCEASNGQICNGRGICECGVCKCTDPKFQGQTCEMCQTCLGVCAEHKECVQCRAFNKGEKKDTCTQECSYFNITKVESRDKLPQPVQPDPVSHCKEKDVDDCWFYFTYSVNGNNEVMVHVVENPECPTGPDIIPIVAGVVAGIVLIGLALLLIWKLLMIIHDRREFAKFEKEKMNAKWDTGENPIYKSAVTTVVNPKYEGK
Summary of the method: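 Calcein AM-labelled Ramos cells (2.5×10^5/well) with compound, up to 100 μM, added to plates coated with CS1 peptide–ovalbumin (0.5 μg/ml) and blocked with 3% BSA. Binding buffer TBS pH 7.5 with 1 mM each MgCl2, CaCl2, MnCl2; 30 min, 37 °C. After washes, adherent cells lysed and read fluorometrically; […].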

[1] = Table 5, dose required to give 50% inhibition
[2] = Table 7, dose required to give 50% inhibition

Row | pIC50 (α4β1 integrin; Table 3, 30 minutes at 37° C.) | melting point [°C] | SMILES | other results
1 | 8.10 | 134 to 136 | Cc1ccc([C@H](CC(=O)O)NC(=O)Nc2c(O)c3ccccc3n(Cc3ccccc3Cl)c2=O)cc1 [(3S)-3-{[({1-[(2-chlorophenyl)methyl]-4-hydroxy-2-oxo-1,2-dihydro-3-quinolinyl}amino)carbonyl]amino}-3-(4-methylphenyl)propanoic acid] | 
2 | 8.70 | 128 to 130 | CCNC(=O)N(CC)C(=O)Nc1ccn(Cc2ccccc2Cl)c(=O)c1NC(=O)N[C@@H](CC(=O)O)c1ccc(C)cc1 [(3S)-3-{[({1-[(2-chlorophenyl)methyl]-4-[({ethyl[(ethylamino)carbonyl]amino}carbonyl)amino]-2-oxo-1,2-dihydro-3-pyridinyl}amino)carbonyl]amino}-3-(4-methylphenyl)propanoic acid] | 
3 | 8.00 | 113 to 115 | Cc1ccc([C@H](CC(=O)O)NC(=O)Nc2c(O)ccn(Cc3ccccc3Cl)c2=O)cc1 [(3S)-3-{[({1-[(2-chlorophenyl)methyl]-4-hydroxy-2-oxo-1,2-dihydro-3-pyridinyl}amino)carbonyl]amino}-3-(4-methylphenyl)propanoic acid] | 
4 | 8.30 | 124 to 126 | Cc1ccc([C@H](CC(=O)O)NC(=O)Nc2c(OCc3ccccc3)cc(C)n(Cc3ccccc3)c2=O)cc1 [(3S)-3-{[({6-methyl-2-oxo-1-(phenylmethyl)-4-[(phenylmethyl)oxy]-1,2-dihydro-3-pyridinyl}amino)carbonyl]amino}-3-(4-methylphenyl)propanoic acid] | 
5 |  | 80 to 85 | CCCCN(C(=O)N[C@@H](CC(=O)O)c1ccc2c(c1)OCO2)C1CC(=O)N(Cc2ccccc2)C1=O (stereo partly drawn) [(3S)-3-(1,3-benzodioxol-5-yl)-3-[({butyl[2,5-dioxo-1-(phenylmethyl)tetrahydro-1H-pyrrol-3-yl]amino}carbonyl)amino]propanoic acid] | pIC50 (α4β1 integrin; Table 4, 30 minutes at 37° C.): 4.15
6 | 8.10 |  | COc1ccc([C@H](CC(=O)O)NC(=O)Nc2c(O)ccn(Cc3ccccc3Cl)c2=O)cc1C [(3S)-3-{[({1-[(2-chlorophenyl)methyl]-4-hydroxy-2-oxo-1,2-dihydro-3-pyridinyl}amino)carbonyl]amino}-3-[3-methyl-4-(methyloxy)phenyl]propanoic acid] | 
7 |  |  | CCOc1cccc([C@H](CC(=O)O)NC(=O)Nc2c(O)c3ccccc3n(Cc3ccccc3Cl)c2=O)c1 | pIC50 (α4β1 integrin; Table 6, 30 minutes at 37° C.): 7.92
8 |  |  | COc1ccc(C(CC(=O)O)NC(=O)Nc2c(O)ccn(Cc3ccccc3Cl)c2=O)c2ccccc12 (stereo not drawn) | pIC50 (α4β1 integrin; Table 6, 30 minutes at 37° C.): 6.80
9 |  |  | Cc1ccc(N(CC(=O)O)NC(=O)Nc2c(O)ccn(Cc3ccccc3Cl)c2=O)cc1 | pIC50 (α4β1 integrin; [1]): < 5.00
10 |  |  | CCCc1cn(Cc2ccc(Cl)cc2)c(=O)c(NC(=O)N[C@@H](CC(=O)O)c2ccc(OCC)c(OCC)c2)c1O | pIC50 (α4β1 integrin; [1]): 7.82
11 |  |  | CCOc1cccc([C@H](CC(=O)O)NC(=O)Nc2c(O)c(Cl)cn(Cc3c(Cl)cccc3OCC)c2=O)c1 | pIC50 (α4β1 integrin; [2]): 8.52
12 |  |  | CCCc1ccc([C@H](CC(=O)O)NC(=O)Nc2c(O)c(C)cn(Cc3ccccc3Cl)c2=O)cc1 | pIC50 (α4β1 integrin; [2]): 7.92
13 |  |  | Cc1ccc(-c2cccc([C@H](CC(=O)O)NC(=O)Nc3c(O)c(C)cn(Cc4ccccc4Cl)c3=O)c2)cc1 | pIC50 (α4β1 integrin; [2]): 7.64
